Values of other authors as cited in patent US20250369985A1, “METHOD FOR DETERMINING THE THERAPEUTIC REGIMEN FOR AN INDIVIDUAL AND ITS USE” (MOSAIQUES DIAGNOSTICS AND THERAPEUTICS AG, priority 2022, published 2025).
Read-outs that look alike come from different tables or passages of the source.

System: urinary proteins/peptides (71 biomarkers of CD71 classifier)

## CCOc1nc2cccc(C(=O)O)c2n1Cc1ccc(-c2ccccc2-c2nnn[nH]2)cc1 [drug A]
Peptide 99900220 (Seq. ID No. 1)
  f (fold-change of the abundance): 1
Peptide 99900467 (Seq. ID No. 2)
  f (fold-change of the abundance): 1
Peptide 99901399 (Seq. ID No. 3)
  f (fold-change of the abundance): 1
Peptide 99902592 (Seq. ID No. 4)
  f (fold-change of the abundance): 1
Peptide 99903025 (Seq. ID No. 5)
  f (fold-change of the abundance): 1
Peptide 99904405 (Seq. ID No. 6)
  f (fold-change of the abundance): 1
Peptide 99904666 (Seq. ID No. 7)
  f (fold-change of the abundance): 1
Peptide 99904862 (Seq. ID No. 8)
  f (fold-change of the abundance): 1.4
Peptide 99905044 (Seq. ID No. 9)
  f (fold-change of the abundance): 1
Peptide 99905259 (Seq. ID No. 10)
  f (fold-change of the abundance): 1.5
Peptide 99905274 (Seq. ID No. 11)
  f (fold-change of the abundance): 1
Peptide 99905379 (Seq. ID No. 12)
  f (fold-change of the abundance): 1
Peptide 99905423 (Seq. ID No. 13)
  f (fold-change of the abundance): 1.15
Peptide 99905509 (Seq. ID No. 14)
  f (fold-change of the abundance): 1
Peptide 99905551 (Seq. ID No. 15)
  f (fold-change of the abundance): 1
Peptide 99906176 (Seq. ID No. 16)
  f (fold-change of the abundance): 1.47
Peptide 99907275 (Seq. ID No. 17)
  f (fold-change of the abundance): 1
Peptide 99907807 (Seq. ID No. 18)
  f (fold-change of the abundance): 1
Peptide 99908755 (Seq. ID No. 19)
  f (fold-change of the abundance): 1
Peptide 99908795 (Seq. ID No. 20)
  f (fold-change of the abundance): 1.49
Peptide 99908916 (Seq. ID No. 21)
  f (fold-change of the abundance): 1
Peptide 99909059 (Seq. ID No. 22)
  f (fold-change of the abundance): 0.65
Peptide 99910002 (Seq. ID No. 23)
  f (fold-change of the abundance): 1
Peptide 99910032 (Seq. ID No. 24)
  f (fold-change of the abundance): 1
Peptide 99910407 (Seq. ID No. 25)
  f (fold-change of the abundance): 1
Peptide 99910483 (Seq. ID No. 26)
  f (fold-change of the abundance): 1
Peptide 99910554 (Seq. ID No. 27)
  f (fold-change of the abundance): 1
Peptide 99910883 (Seq. ID No. 28)
  f (fold-change of the abundance): 0.81
Peptide 99911002 (Seq. ID No. 29)
  f (fold-change of the abundance): 1
Peptide 99911193 (Seq. ID No. 30)
  f (fold-change of the abundance): 1.26
Peptide 99911415 (Seq. ID No. 31)
  f (fold-change of the abundance): 1
Peptide 99911559 (Seq. ID No. 32)
  f (fold-change of the abundance): 1
Peptide 99911777 (Seq. ID No. 33)
  f (fold-change of the abundance): 1
Peptide 99912101 (Seq. ID No. 34)
  f (fold-change of the abundance): 1
Peptide 99912211 (Seq. ID No. 35)
  f (fold-change of the abundance): 1.78
Peptide 99912366 (Seq. ID No. 36)
  f (fold-change of the abundance): 1
Peptide 99912411 (Seq. ID No. 37)
  f (fold-change of the abundance): 1
Peptide 99912661 (Seq. ID No. 38)
  f (fold-change of the abundance): 1
Peptide 99913200 (Seq. ID No. 39)
  f (fold-change of the abundance): 1
Peptide 99913322 (Seq. ID No. 40)
  f (fold-change of the abundance): 1
Peptide 99913825 (Seq. ID No. 41)
  f (fold-change of the abundance): 0.68
Peptide 99914211 (Seq. ID No. 42)
  f (fold-change of the abundance): 1
Peptide 99914445 (Seq. ID No. 43)
  f (fold-change of the abundance): 1
Peptide 99914876 (Seq. ID No. 44)
  f (fold-change of the abundance): 1
Peptide 99914887 (Seq. ID No. 45)
  f (fold-change of the abundance): 1
Peptide 99914893 (Seq. ID No. 46)
  f (fold-change of the abundance): 0.67
Peptide 99914935 (Seq. ID No. 47)
  f (fold-change of the abundance): 1
Peptide 99915015 (Seq. ID No. 48)
  f (fold-change of the abundance): 1.83
Peptide 99915755 (Seq. ID No. 49)
  f (fold-change of the abundance): 0.67
Peptide 99915778 (Seq. ID No. 50)
  f (fold-change of the abundance): 1
Peptide 99915883 (Seq. ID No. 51)
  f (fold-change of the abundance): 1
Peptide 99916170 (Seq. ID No. 52)
  f (fold-change of the abundance): 1.27
Peptide 99916177 (Seq. ID No. 53)
  f (fold-change of the abundance): 1
Peptide 99916611 (Seq. ID No. 54)
  f (fold-change of the abundance): 1
Peptide 99916615 (Seq. ID No. 55)
  f (fold-change of the abundance): 1
Peptide 99916966 (Seq. ID No. 56)
  f (fold-change of the abundance): 1
Peptide 99917047 (Seq. ID No. 57)
  f (fold-change of the abundance): 0.64
Peptide 99917221 (Seq. ID No. 58)
  f (fold-change of the abundance): 0.74
Peptide 99917280 (Seq. ID No. 59)
  f (fold-change of the abundance): 1
Peptide 99917288 (Seq. ID No. 60)
  f (fold-change of the abundance): 1
Peptide 99917419 (Seq. ID No. 61)
  f (fold-change of the abundance): 1
Peptide 99917505 (Seq. ID No. 62)
  f (fold-change of the abundance): 1
Peptide 99917596 (Seq. ID No. 63)
  f (fold-change of the abundance): 1
Peptide 99917626 (Seq. ID No. 64)
  f (fold-change of the abundance): 1
Peptide 99917690 (Seq. ID No. 65)
  f (fold-change of the abundance): 1
Peptide 99917825 (Seq. ID No. 66)
  f (fold-change of the abundance): 1
Peptide 99917890 (Seq. ID No. 67)
  f (fold-change of the abundance): 1
Peptide 99917947 (Seq. ID No. 68)
  f (fold-change of the abundance): 1
Peptide 99918831 (Seq. ID No. 69)
  f (fold-change of the abundance): 1
Peptide 99918906 (Seq. ID No. 70)
  f (fold-change of the abundance): 1
Peptide 99918909 (Seq. ID No. 71)
  f (fold-change of the abundance): 1
